Measured values published in US8772576B2, “Herbicide-resistant inoculant strains” (priority 2009, dated 2014).

Tests used:
parent strain ABM201 = experiment: Growth of parent strain on Vincent's YEM agar amended with glyphosate; type: cell-based, Bradyrhizobium japonicum
Experimental: (§1) After the plates were sufficiently dry, about 10^8 to 5×10^8 colony-forming units (CFU) of the parent bacteria (ABM201) (Advanced Biological Marketing, Van Wert, Ohio), determined by serial dilution and plating on nonselective medium, were spread with a sterile, bent glass rod. The plates were carefully wrapped with Parafilm® to prevent the desiccation of the agar growth medium during prolonged incubation. The plates were then incubated at room temperature to 30° C. for approximately 2 to 3 weeks.

[1] = system: herbicide resistant mutants of B. japonicum strain ABM 201; experiment: Growth of glyphosate-resistant mutant on Vincent's YEM agar amended with glyphosate; type: cell-based, Bradyrhizobium japonicum; conditions: 80 ppm glyphosate; exemplary embodiment (resistant mutant)
Experimental: as §1
Colonies that developed resembled the parent strain and its growth characteristics on non-selective YEM medium. The colonies were convex, entirely opaque, smooth, and only about 1 mm in diameter after 10-14 days of incubation. Mutant frequency was about 5×10^−7 to 1×10^−6.

SMILES: O=C(O)CNCP(=O)(O)O [glyphosate, N-(phosphonomethyl)glycine]
- glyphosate concentration that totally inhibits the parent strain (parent strain ABM201): less than 40 ppm
- growth and viability on glyphosate [1]: normal growth and viability
